Experimental data published in patent publication US9302991B2, “Arylamide derivatives as TTX-S blockers” (RaQualia Pharma Inc., priority 2010, dated 2016).

biological target: T1, human Nav1.7 channels (Homo sapiens, UniProt Q15858); test: FRET assay, human Nav1.7 (EFS on FDSS); format: cell-based; conditions: CHO cells expressing human Nav1.7, read-out: IC50 against Nav1.7
T1 construct: expressed in transfected cells; host or cells: CHO
How it was run: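 IC50 was derived from normalized 440 nm fluorescence ratios of the EFS-evoked membrane-potential response read on FDSS. Recombinant CHO cells were sequentially dye-loaded with coumarin/oxonol FRET pair at room temperature in pH 7.4 buffer before compound addition.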

T1 sequence (Q15858 whole entry): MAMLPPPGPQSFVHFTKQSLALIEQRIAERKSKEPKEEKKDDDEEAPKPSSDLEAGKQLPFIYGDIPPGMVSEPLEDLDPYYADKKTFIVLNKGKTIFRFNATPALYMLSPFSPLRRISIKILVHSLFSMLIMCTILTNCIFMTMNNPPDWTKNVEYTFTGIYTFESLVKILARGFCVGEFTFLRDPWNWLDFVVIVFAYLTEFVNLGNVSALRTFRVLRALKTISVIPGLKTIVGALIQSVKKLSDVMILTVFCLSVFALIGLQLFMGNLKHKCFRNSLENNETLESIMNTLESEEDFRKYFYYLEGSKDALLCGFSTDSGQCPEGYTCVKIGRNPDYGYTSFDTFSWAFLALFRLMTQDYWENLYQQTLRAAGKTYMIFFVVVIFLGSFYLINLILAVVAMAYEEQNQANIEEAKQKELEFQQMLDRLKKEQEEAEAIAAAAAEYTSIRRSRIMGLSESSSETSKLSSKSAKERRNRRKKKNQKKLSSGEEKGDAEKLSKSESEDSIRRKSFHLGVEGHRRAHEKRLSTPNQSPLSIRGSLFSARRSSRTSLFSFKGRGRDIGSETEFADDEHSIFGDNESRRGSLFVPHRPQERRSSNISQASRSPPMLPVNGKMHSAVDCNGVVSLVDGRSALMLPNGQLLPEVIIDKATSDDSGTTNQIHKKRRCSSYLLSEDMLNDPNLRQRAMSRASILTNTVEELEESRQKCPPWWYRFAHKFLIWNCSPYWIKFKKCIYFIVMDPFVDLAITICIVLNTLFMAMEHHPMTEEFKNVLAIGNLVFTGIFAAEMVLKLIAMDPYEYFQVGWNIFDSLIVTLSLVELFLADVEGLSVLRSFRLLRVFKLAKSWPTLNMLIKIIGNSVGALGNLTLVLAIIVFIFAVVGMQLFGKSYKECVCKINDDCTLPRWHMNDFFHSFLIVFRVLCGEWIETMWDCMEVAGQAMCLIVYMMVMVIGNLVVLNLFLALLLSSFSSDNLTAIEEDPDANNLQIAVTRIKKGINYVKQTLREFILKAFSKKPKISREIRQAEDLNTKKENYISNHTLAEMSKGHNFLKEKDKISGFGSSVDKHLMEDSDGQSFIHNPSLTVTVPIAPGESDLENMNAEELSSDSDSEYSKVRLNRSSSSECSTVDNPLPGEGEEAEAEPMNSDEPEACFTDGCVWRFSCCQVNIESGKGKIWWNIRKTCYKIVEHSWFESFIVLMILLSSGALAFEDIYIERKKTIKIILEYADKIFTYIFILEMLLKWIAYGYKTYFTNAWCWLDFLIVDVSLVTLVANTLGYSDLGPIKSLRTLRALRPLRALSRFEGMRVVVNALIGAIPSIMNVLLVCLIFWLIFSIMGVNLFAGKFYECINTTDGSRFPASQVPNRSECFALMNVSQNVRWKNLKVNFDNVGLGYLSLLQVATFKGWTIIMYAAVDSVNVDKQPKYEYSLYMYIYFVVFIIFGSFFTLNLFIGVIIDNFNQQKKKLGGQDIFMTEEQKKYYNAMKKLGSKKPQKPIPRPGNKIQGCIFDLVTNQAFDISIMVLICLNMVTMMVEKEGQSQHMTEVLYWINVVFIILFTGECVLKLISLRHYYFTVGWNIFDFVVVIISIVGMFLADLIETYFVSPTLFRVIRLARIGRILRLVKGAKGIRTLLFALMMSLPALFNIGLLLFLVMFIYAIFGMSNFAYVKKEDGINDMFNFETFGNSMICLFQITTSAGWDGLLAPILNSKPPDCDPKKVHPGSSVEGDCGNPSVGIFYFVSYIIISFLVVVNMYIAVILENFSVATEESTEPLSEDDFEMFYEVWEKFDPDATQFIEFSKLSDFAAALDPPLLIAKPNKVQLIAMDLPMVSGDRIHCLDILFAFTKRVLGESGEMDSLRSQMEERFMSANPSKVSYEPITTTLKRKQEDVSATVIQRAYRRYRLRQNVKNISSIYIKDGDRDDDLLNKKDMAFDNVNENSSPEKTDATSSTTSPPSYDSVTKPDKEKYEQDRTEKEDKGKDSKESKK

IC50	SMILES
< 1000 nM	COc1nc(OCC(F)F)ccc1C(C)NC(=O)c1ccnc(NC(C)=O)c1 (single isomer, unassigned) [Example 1160, 2-acetamido-N-(1-(6-(2,2-difluoroethoxy)-2-methoxypyridin-3-yl)ethyl)isonicotinamide]
< 1000 nM	CCC(=O)Nc1cc(C(=O)NC(C)c2ccc(OCC(F)F)nc2OC)ccn1 (single isomer, unassigned) [Example 1161, N-(1-(6-(2,2-difluoroethoxy)-2-methoxypyridin-3-yl)ethyl)-2-propionamidoisonicotinamide]
< 1000 nM	COc1nc(OCC(F)F)ccc1C(C)NC(=O)c1ccnc(NC(=O)C2CC2)c1 (single isomer, unassigned) [Example 1162, 2-(cyclopropanecarboxamido)-N-(1-(6-(2,2-difluoroethoxy)-2-methoxypyridin-3-yl)ethyl)isonicotinamide]
< 1000 nM	COc1nc(OCC(F)F)ccc1C(C)NC(=O)c1ccnc(NC(=O)C(C)C)c1 (single isomer, unassigned) [Example 1163, N-(1-(6-(2,2-difluoroethoxy)-2-methoxypyridin-3-yl)ethyl)-2-isobutyramidoisonicotinamide]
< 1000 nM	COc1nc(OCC(F)F)ccc1C(C)NC(=O)c1cc(C)nc(NC(=O)C(C)C)c1 (single isomer, unassigned) [Example 1166, N-(1-(6-(2,2-difluoroethoxy)-2-methoxypyridin-3-yl)ethyl)-2-isobutyramido-6-methylisonicotinamide]
< 1000 nM	CCC(=O)Nc1cc(C(=O)NC(C)c2ccc(OCC(F)(F)C(F)(F)F)nc2)ccn1 (single isomer, unassigned) [Example 1169, N-(1-(6-(2,2,3,3,3-pentafluoropropoxy)pyridin-3-yl)ethyl)-2-propionamidoisonicotinamide]
< 1000 nM	Cc1cc(C(C)NC(=O)c2ccnc(NC(=O)C(C)C)c2)cc(Cl)c1OCC(F)F (single isomer, unassigned) [Example 1210, N-(1-(3-chloro-4-(2,2-difluoroethoxy)-5-methylphenyl)ethyl)-2-isobutyramidoisonicotinamide]
< 1000 nM	Cc1cc(C(=O)NC(C)c2cc(C)c(OCC(F)F)c(Cl)c2)cc(NC(=O)C(C)C)n1 (single isomer, unassigned) [Example 1212, N-(1-(3-chloro-4-(2,2-difluoroethoxy)-5-methylphenyl)ethyl)-2-isobutyramido-6-methylisonicotinamide]
< 1000 nM	CC(=O)Nc1cc(C(=O)NCc2cccc(OCC(F)(F)F)n2)ccn1 [Example 22, 2-acetamido-N-((6-(2,2,2-trifluoroethoxy)pyridin-2-yl)methyl)isonicotinamide]
< 1000 nM	CC(=O)Nc1cc(C(=O)NCc2cccc(OC(F)(F)F)c2)ccn1 [Example 24, 2-acetamido-N-(3-(trifluoromethoxy)benzyl)isonicotinamide]
< 1000 nM	O=C(NCc1cccc(OCC(F)(F)F)n1)c1cccc2[nH]c(=O)[nH]c12 [Example 57, 2-oxo-N-((6-(2,2,2-trifluoroethoxy)pyridin-2-yl)methyl)-2,3-dihydro-1H-benzo[d]imidazole-4-carboxamide]
< 1000 nM	CCC(=O)Nc1cc(C(=O)NCc2ccnc(OCC(F)(F)F)c2)cc(C)n1 [Example 137, 2-methyl-6-propionamido-N-((2-(2,2,2-trifluoroethoxy)pyridin-4-yl)methyl)isonicotinamide]
< 1000 nM	CCC(=O)Nc1cc(C(=O)NCc2ccc(OCC(F)(F)F)nc2C)cc(C)n1 [Example 168, 2-methyl-N-((2-methyl-6-(2,2,2-trifluoroethoxy)pyridin-3-yl)methyl)-6-propionamidoisonicotinamide]
< 1000 nM	Cc1cc(OCC(F)(F)F)ncc1CNC(=O)c1ccnc(NC(=O)C(C)C)c1 [Example 178, 2-isobutyramido-N-((4-methyl-6-(2,2,2-trifluoroethoxy)pyridin-3-yl)methyl)isonicotinamide]
< 1000 nM	CCC(=O)Nc1cc(C(=O)NCc2cnc(OCC(F)(F)F)cc2C)cc(C)n1 [Example 179, 2-methyl-N-((4-methyl-6-(2,2,2-trifluoroethoxy)pyridin-3-yl)methyl)-6-propionamidoisonicotinamide]
< 1000 nM	COc1nc(OCC(F)(F)F)ccc1CNC(=O)c1cc(C)nc(NC(=O)C2CC2)n1 [Example 181, 2-(cyclopropanecarboxamido)-N-((2-methoxy-6-(2,2,2-trifluoroethoxy)pyridin-3-yl)methyl)-6-methylpyrimidine-4-carboxamide]
< 1000 nM	CC(=O)Nc1cc(C(=O)NCc2ccc(OCC(F)(F)F)nc2)cc(C)n1 [Example 237, 2-acetamido-6-methyl-N-((6-(2,2,2-trifluoroethoxy)pyridin-3-yl)methyl)isonicotinamide]
< 1000 nM	CC(=O)Nc1cc(C(=O)NCc2cnc(OCC(F)(F)F)cc2C)cc(C)n1 [Example 243, 2-acetamido-6-methyl-N-((4-methyl-6-(2,2,2-trifluoroethoxy)pyridin-3-yl)methyl)isonicotinamide]

IC50	SMILES
< 1000 nM	CCOc1cc(CNC(=O)c2cc(C)nc(NC(C)=O)c2)cnc1OCC(F)(F)F [Example 264, 2-acetamido-N-((5-ethoxy-6-(2,2,2-trifluoroethoxy)pyridin-3-yl)methyl)-6-methylisonicotinamide]
< 1000 nM	CCC(=O)Nc1cc(C(=O)NCc2cnc(OCC(F)(F)F)c(OC)c2)cc(C)n1 [Example 270]
< 1000 nM	COc1cc(CNC(=O)c2cc(C)nc(NC(C)=O)c2)cnc1OCC(F)(F)F [Example 272, 2-acetamido-N-((5-methoxy-6-(2,2,2-trifluoroethoxy)pyridin-3-yl)methyl)-6-methylisonicotinamide]
< 1000 nM	CC(=O)Nc1cc(C(=O)NCc2ccc(OCC(F)(F)F)nc2N2CCOCC2)ccn1 [Example 281, 2-acetamido-N-((2-morpholino-6-(2,2,2-trifluoroethoxy)pyridin-3-yl)methyl)isonicotinamide]
< 1000 nM	CC(C)C(=O)Nc1cc(C(=O)NCc2ccc(OCC(F)(F)F)nc2N2CCOCC2)ccn1 [Example 282, 2-isobutyramido-N-((2-morpholino-6-(2,2,2-trifluoroethoxy)pyridin-3-yl)methyl)isonicotinamide]
< 1000 nM	CC(=O)Nc1cc(C(=O)NCc2ccc(OCC(F)(F)F)nc2N2CCOCC2)cc(C)n1 [Example 283, 2-acetamido-6-methyl-N-((2-morpholino-6-(2,2,2-trifluoroethoxy)pyridin-3-yl)methyl)isonicotinamide]
< 1000 nM	CCC(=O)Nc1cc(C(=O)NCc2ccc(OCC(F)(F)F)nc2N2CCOCC2)cc(C)n1 [Example 284, 2-methyl-N-((2-morpholino-6-(2,2,2-trifluoroethoxy)pyridin-3-yl)methyl)-6-propionamidoisonicotinamide]
< 1000 nM	COc1nc(OCC(F)(F)F)ccc1CN(C)C(=O)c1cc(C)nc(NC(C)=O)c1 [Example 290, 2-acetamido-N-((2-methoxy-6-(2,2,2-trifluoroethoxy)pyridin-3-yl)methyl)-N,6-dimethylisonicotinamide]
< 1000 nM	CCC(=O)Nc1cc(C(=O)N(C)Cc2ccc(OCC(F)(F)F)nc2OC)cc(C)n1 [Example 291, N-((2-methoxy-6-(2,2,2-trifluoroethoxy)pyridin-3-yl)methyl)-N,2-dimethyl-6-propionamidoisonicotinamide]
< 1000 nM	CC(=O)Nc1cc(C(=O)NCc2ccc(OCC(F)(F)F)nc2N2CCCCC2)ccn1 [Example 302, 2-acetamido-N-((2-(piperidin-1-yl)-6-(2,2,2-trifluoroethoxy)pyridin-3-yl)methyl)isonicotinamide]
< 1000 nM	CCC(=O)Nc1cc(C(=O)NCc2ccc(OCC(F)(F)F)nc2N2CCCCC2)ccn1 [Example 303, N-((2-(piperidin-1-yl)-6-(2,2,2-trifluoroethoxy)pyridin-3-yl)methyl)-2-propionamidoisonicotinamide]
< 1000 nM	O=C(NCc1ccc(OCC(F)(F)F)nc1N1CCCCC1)c1ccnc(NC(=O)C2CC2)c1 [Example 304, 2-(cyclopropanecarboxamido)-N-((2-(piperidin-1-yl)-6-(2,2,2-trifluoroethoxy)pyridin-3-yl)methyl)isonicotinamide]
< 1000 nM	CC(C)C(=O)Nc1cc(C(=O)NCc2ccc(OCC(F)(F)F)nc2N2CCCCC2)ccn1 [Example 305, 2-isobutyramido-N-((2-(piperidin-1-yl)-6-(2,2,2-trifluoroethoxy)pyridin-3-yl)methyl)isonicotinamide]
< 1000 nM	CCC(=O)Nc1cc(C(=O)NCc2ccc(OCC(F)(F)F)nc2N2CCCCC2)cc(C)n1 [Example 306, 2-methyl-N-((2-(piperidin-1-yl)-6-(2,2,2-trifluoroethoxy)pyridin-3-yl)methyl)-6-propionamidoisonicotinamide]
< 1000 nM	CC(=O)Nc1cc(C(=O)NCc2ccc(OCC(F)(F)F)nc2N2CCCCC2)cc(C)n1 [Example 307, 2-acetamido-6-methyl-N-((2-(piperidin-1-yl)-6-(2,2,2-trifluoroethoxy)pyridin-3-yl)methyl)isonicotinamide]
< 1000 nM	CCCC(=O)Nc1cc(C(=O)NCc2ccc(OCC(F)(F)F)nc2N2CCCCC2)ccn1 [Example 308, 2-butyramido-N-((2-(piperidin-1-yl)-6-(2,2,2-trifluoroethoxy)pyridin-3-yl)methyl)isonicotinamide]
< 1000 nM	CC(=O)Nc1cc(C(=O)NCc2cc(F)c(OCC(F)(F)F)nc2C)cc(C)n1 [Example 312, 2-acetamido-N-((5-fluoro-2-methyl-6-(2,2,2-trifluoroethoxy)pyridin-3-yl)methyl)-6-methylisonicotinamide]
< 1000 nM	CCC(=O)Nc1cc(C(=O)NCc2cc(F)c(OCC(F)(F)F)nc2C)cc(C)n1 [Example 313, N-((5-fluoro-2-methyl-6-(2,2,2-trifluoroethoxy)pyridin-3-yl)methyl)-2-methyl-6-propionamidoisonicotinamide]
